Usually IC50 stands for the concentration that gives 50% inhibition.

Our source for the IC50 values is US9765092B2, “Tricyclic piperidine compounds” (ACTELION PHARMACEUTICALS LTD, priority 2013, dated 2017).

The test has as its target human TPH1 (Homo sapiens (Human), UniProt P17752). Kind of test: Biochemical in vitro assay using fluorescence readout (TPH1 inhibition).
[1] abbreviates: full length human TPH1, 40 μM L-tryptophan, 15° C., 60 minutes, fluorescence at 540 nm, mean if determined several times.
[2] abbreviates: human TPH1, fluorescence readout.

Sequence of human TPH1 (P17752 whole entry): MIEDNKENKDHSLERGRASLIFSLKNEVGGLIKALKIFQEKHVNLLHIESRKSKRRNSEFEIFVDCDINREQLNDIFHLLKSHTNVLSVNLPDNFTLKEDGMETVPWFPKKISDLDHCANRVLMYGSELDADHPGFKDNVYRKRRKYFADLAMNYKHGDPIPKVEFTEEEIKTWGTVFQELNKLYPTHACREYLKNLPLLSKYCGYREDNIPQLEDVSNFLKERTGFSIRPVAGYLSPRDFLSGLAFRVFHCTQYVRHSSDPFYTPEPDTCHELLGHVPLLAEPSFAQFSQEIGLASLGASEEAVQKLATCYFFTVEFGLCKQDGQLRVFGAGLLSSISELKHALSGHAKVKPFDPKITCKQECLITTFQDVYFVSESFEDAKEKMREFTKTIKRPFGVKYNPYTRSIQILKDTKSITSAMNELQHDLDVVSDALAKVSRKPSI

The molecule `Cc1nn2c3c(nc2s1)CCN(C(=O)COc1ccc(N2CCOCC2)nc1Cl)C3c1cnc(N(C)C)s1` (stereo not shown) [Example 1.22.1, 2-((2-Chloro-6-morpholinopyridin-3-yl)oxy)-1-(5-(2-(dimethylamino)-thiazol-5-yl)-2-methyl-7,8-dihydro[1,3,4]thiadiazolo[2′,3′:2,3]imidazo[4,5-c]pyridin-6(5H)-yl)ethanone] showed an IC50 under setting [1] of 7 nM.

As for `Cc1nn2c3c(nc2s1)CCN(C(=O)COc1ccc(-c2ncco2)nc1Cl)C3c1ccc(C2CC2)cc1F` (stereo not shown) [Example 1.6.29, 2-((2-chloro-6-(oxazol-2-yl)pyridin-3-yl)oxy)-1-(5-(4-cyclopropyl-2-fluorophenyl)-2-methyl-7,8-dihydro-[1,3,4]thiadiazolo[2′,3′:2,3]imidazo[4,5-c]pyridin-6(5H)-yl)ethanone], it took 17 nM to reach half-maximal inhibition under setting [2] (IC50).

For the molecule `Cc1nn2c3c(nc2s1)CCN(C(=O)COc1ccc(N(C)C)nc1Cl)C3c1cnc(N(C)C)s1` (stereo not shown) [Example 1.22.2, 2-((2-Chloro-6-(dimethylamino)pyridin-3-yl)oxy)-1-(5-(2-(dimethylamino)thiazol-5-yl)-2-methyl-7,8-dihydro[1,3,4]thiadiazolo[2′,3′:2,3]imidazo[4,5-c]pyridin-6(5H)-yl)ethanone], inhibition under setting [1] was half-maximal at 25 nM (IC50).

With `CNC(=O)c1cc(F)c(C2c3c(nc4sc(C)nn34)CCN2C(=O)COc2ccc(C(F)(F)F)cc2Cl)s1` (stereo not shown) [Example 1.25.2, 5-(6-(2-(2-chloro-4-(trifluoromethyl)phenoxy)acetyl)-2-methyl-5,6,7,8-tetrahydro-[1,3,4]thiadiazolo[2′,3′:2,3]imidazo[4,5-c]pyridin-5-yl)-4-fluoro-N-methylthiophene-2-carboxamide], the 50% inhibitory concentration (IC50) under setting [2] came to 10 nM.

In the case of `Cc1nc(C)c(C2c3c(nc4sc(C)nn34)CCN2C(=O)COc2ccc(N(C)S(C)(=O)=O)nc2Cl)s1` (stereo not shown) [Example 1.68.6, N-(6-chloro-5-(2-(5-(2,4-dimethylthiazol-5-yl)-2-methyl-7,8-dihydro-[1,3,4]thiadiazolo[2′,3′:2,3]imidazo[4,5-c]-pyridin-6(5H)-yl)-2-oxoethoxy)pyridin-2-yl)-N-methylmethanesulfonamide], under setting [2], it took 6 nM to reach half-maximal inhibition (IC50).

On to `Cc1nn2c3c(nc2s1)CCN(C(=O)COc1ccc(C(F)(F)F)nc1Cl)C3c1cnc(N(C)C)s1` (stereo not shown) [Example 1.22.3, 2-((2-Chloro-6-(trifluoromethyl)pyridin-3-yl)oxy)-1-(5-(2-(dimethylamino)thiazol-5-yl)-2-methyl-7,8-dihydro-[1,3,4]thiadiazolo[2′,3′:2,3]imidazo[4,5-c]pyridin-6(5H)-yl)ethanone], for which the IC50 under setting [1] was determined as 136 nM.

For `COC(=O)c1ccc(C2c3c(nc4sc(C)nn34)CCN2C(=O)COc2ccc(NS(C)(=O)=O)nc2Cl)c(F)c1` (stereo not shown) [Example 1.79.1, methyl-4-(6-(2-((2-chloro-6-(methylsulfonamido)pyridin-3-yl)oxy)acetyl)-2-methyl-5,6,7,8-tetrahydro-[1,3,4]thiadiazolo[2′,3′:2,3]imidazo[4,5-c]pyridin-5-yl)-3-fluorobenzoate], the IC50 under setting [2] was determined as 17 nM.

`Cc1nn2c3c(nc2s1)CCN(C(=O)COc1ccc(C(=O)N(C)C)nc1Cl)C3c1ccc(C(=O)N(C)C)o1` (stereo not shown) [Example 1.40.1, 6-Chloro-5-(2-(5-(5-(dimethylcarbamoyl)furan-2-yl)-2-methyl-7,8-dihydro[1,3,4]thiadiazolo[2′,3′:2,4]imidazo[4,5-c]pyridin-6(5H)-yl)-2-oxoethoxy)-N,N-dimethylpicolinamide] returned an IC50 under setting [1] of 90 nM.

In turn, `CNC(=O)c1cc(F)c(C2c3c(nc4sc(C)nn34)CCN2C(=O)COc2ccc(C(=O)N(C)C)nc2Cl)s1` (stereo not shown) [Example 1.25.4, 6-chloro-5-(2-(5-(3-fluoro-5-(methylcarbamoyl)thiophen-2-yl)-2-methyl-7,8-dihydro-[1,3,4]thiadiazolo[2′,3′:2,3]imidazo[4,5-c]pyridin-6(5H)-yl)-2-oxoethoxy)-N,N-dimethylpicolinamide] had a 50% inhibitory concentration (IC50) under setting [2] of 6 nM.

Take `O=C(COc1ccc(Cl)cc1Cl)N1CCc2nc3sccn3c2C1c1cnn(-c2ccccc2)c1` (stereo not shown) [Example 6.13.2, 2-(2,4-dichlorophenoxy)-1-(5-(1-phenyl-1H-pyrazol-4-yl)-7,8-dihydrothiazolo[2′,3′:2,3]imidazo[4,5-c]pyridin-6(5H)-yl)ethanone]: half-maximal inhibition under setting [2] (IC50) required 50 nM.

Under setting [1], `Cc1nn2c3c(nc2s1)CCN(C(=O)COc1ccc(N2CCOCC2)nc1Cl)C3c1nc(C(N)=O)cs1` (stereo not shown) [Example 1.48.1, 2-(6-(2-((2-Chloro-6-morpholinopyridin-3-yl)oxy)acetyl)-2-methyl-5,6,7,8-tetrahydro-[1,3,4]thiadiazolo[2′,3′:2,3]imidazo[4,5-c]pyridin-5-yl)thiazole-4-carboxamide] showed an IC50 of 5 nM.

Under setting [2], `Cc1nn2c3c(nc2s1)CCN(C(=O)COc1ccc(N2CCOCC2)nc1Cl)C3c1cnc(N2CCOCC2)s1` (stereo not shown) [Example 1.7.2, 2-((2-chloro-6-morpholinopyridin-3-yl)oxy)-1-(2-methyl-5-(2-morpholinothiazol-5-yl)-7,8-dihydro-[1,3,4]thiadiazolo [2′,3′:2,3]imidazo[4,5-c]pyridin-6(5H)-yl)ethanone] came in with an IC50 of 32 nM.

As for `COC(=O)c1cnc(C2c3c(nc4sc(C)nn34)CCN2C(=O)COc2ccc(C(F)(F)F)cc2Cl)s1` (stereo not shown) [Example 1.28.2, Methyl 2-(6-(2-(2-chloro-4-(trifluoromethyl)phenoxy)acetyl)-2-methyl-5,6,7,8-tetrahydro-[1,3,4]thiadiazolo [2′,3′:2,3]imidazo[4,5-c]pyridin-5-yl)thiazole-5-carboxylate], under setting [2], the IC50 came to 40 nM.

With `Cc1nn2c3c(nc2s1)CCN(C(=O)COc1ccc(-c2ncco2)nc1Cl)[C@H]3c1sccc1F` [Example 1.23.15, (R)-2-((2-chloro-6-(oxazol-2-yl)pyridin-3-yl)oxy)-1-(5-(3-fluorothiophen-2-yl)-2-methyl-7,8-dihydro-[1,3,4]thiadiazolo[2′,3′:2,3]imidazo[4,5-c]pyridin-6(5H)-yl)ethanone], the IC50 under setting [2] was determined as 20 nM.

Turning to `Cc1nn2c3c(nc2s1)CCN(C(=O)COc1ccc(N2CC(F)(F)C2)nc1Cl)C3c1sccc1F` (stereo not shown) [Example 1.23.8, 2-((2-chloro-6-(3,3-difluoroazetidin-1-yl)pyridin-3-yl)oxy)-1-(5-(3-fluorothiophen-2-yl)-2-methyl-7,8-dihydro-[1,3,4]thiadiazolo[2′,3′:2,3]imidazo[4,5-c]pyridin-6(5H)-yl)ethanone], under setting [2], inhibition was half-maximal at 6 nM (IC50).

For the molecule `CCc1ncccc1OCC(=O)N1CCc2nc3sc(C)nn3c2C1c1ccc(C2CC2)cc1F` (stereo not shown) [Example 1.6.9, 1-(5-(4-cyclopropyl-2-fluorophenyl)-2-methyl-7,8-dihydro-[1,3,4]thiadiazolo[2′,3′:2,3]imidazo[4,5-c]pyridin-6(5H)-yl)-2-((2-ethylpyridin-3-yl)oxy)ethanone], the IC50 under setting [2] was determined as 457 nM.

In turn, `Cc1ccc([C@H]2c3c(nc4sc(C)nn34)CCN2C(=O)COc2ccc(NS(C)(=O)=O)nc2Cl)c(F)c1` [Example 1.53.4] came in with an IC50 under setting [2] of 8 nM.

With `O=C(COc1ccc(CN2CCOCC2)cc1Cl)N1CCc2nc3sccn3c2C1c1cccnc1F` (stereo not shown) [Example 6.2.1, 2-(2-chloro-4-(morpholinomethyl)phenoxy)-1-(5-(2-fluoropyridin-3-yl)-7,8-dihydrothiazolo[2′,3′:2,3]imidazo[4,5-c]pyridin-6(5H)-yl)ethanone], half-maximal inhibition under setting [2] (IC50) was put at 12 nM.

For the molecule `CCc1ncccc1OCC(=O)N1CCc2nc3sccn3c2C1c1cnn(-c2ccccc2)c1` (stereo not shown) [Example 6.13.9, 2-((2-ethylpyridin-3-yl)oxy)-1-(5-(1-phenyl-1H-pyrazol-4-yl)-7,8-dihydrothiazolo[2′,3′:2,3]imidazo[4,5-c]pyridin-6(5H)-yl)ethanone], the IC50 under setting [2] turned out to be 123 nM.

Turning to `CNC(=O)c1ccc(C2c3c(nc4sc(C)nn34)CCN2C(=O)COc2ccc(C(=O)N(C)C)nc2Cl)o1` (stereo not shown) [Example 1.42.1, 6-chloro-N,N-dimethyl-5-(2-(2-methyl-5-(5-(methylcarbamoyl)furan-2-yl)-7,8-dihydro-[1,3,4]thiadiazolo[2′,3′:2,3]imidazo[4,5-c]pyridin-6(5H)-yl)-2-oxoethoxy)picolinamide], under setting [2], it took 49 nM to reach half-maximal inhibition (IC50).

The molecule `O=C(COc1ccc(CN2CCOCC2)nc1Cl)N1CCc2nc3sccn3c2C1c1cnn(-c2ccccc2)c1` (stereo not shown) [Example 6.13.6, 2-((2-chloro-6-(morpholinomethyl)pyridin-3-yl)oxy)-1-(5-(1-phenyl-1H-pyrazol-4-yl)-7,8-dihydrothiazolo-[2′,3′:2,3]imidazo[4,5-c]pyridin-6(5H)-yl)ethanone] showed an IC50 under setting [2] of 28 nM.

Take `CCc1nn2c3c(nc2s1)CCN(C(=O)COc1ccc(-c2ncco2)nc1Cl)C3c1ccc(Cl)cc1F` (stereo not shown) [Example 3.1.3, 1-(5-(4-chloro-2-fluorophenyl)-2-ethyl-7,8-dihydro-[1,3,4]thiadiazolo[2′,3′:2,3]imidazo[4,5-c]pyridin-6(5H)-yl)-2-((2-chloro-6-(oxazol-2-yl)pyridin-3-yl)oxy)ethanone]: under setting [2], the IC50 was 12 nM.

Under setting [2], `Cc1nn2c3c(nc2s1)CCN(C(=O)COc1ccc(C(F)(F)F)cc1Cl)C3c1ccc(Cl)nc1F` (stereo not shown) [Example 1.16.7, 1-(5-(6-chloro-2-fluoropyridin-3-yl)-2-methyl-7,8-dihydro-[1,3,4]thiadiazolo[2′,3′:2,3]imidazo[4,5-c]pyridin-6(5H)-yl)-2-(2-chloro-4-(trifluoromethyl)phenoxy)ethanone] had a half-inhibitory concentration (IC50) of 5 nM.

For `Cc1ccc(OCC(=O)N2CCc3nc4sccn4c3C2c2cccnc2F)cc1` (stereo not shown) [Example 6.2.3, 1-(5-(2-fluoropyridin-3-yl)-7,8-dihydrothiazolo[2′,3′:2,3]-imidazo[4,5-c]pyridin-6(5H)-yl)-2-(p-tolyloxy)ethanone], under setting [2], the midpoint of inhibition, the IC50, lay at 52 nM.

`Cc1nn2c3c(nc2s1)CCN(C(=O)COc1ccc(N2CCOCC2)nc1Cl)C3c1cc(C(=O)O)cs1` (stereo not shown) [Example 1.46.1, 5-(6-(2-((2-chloro-6-morpholinopyridin-3-yl)oxy)acetyl)-2-methyl-5,6,7,8-tetrahydro-[1,3,4]thiadiazolo[2′,3′:2,3]imidazo[4,5-c]pyridin-5-yl)thiophene-3-carboxylic acid] registered an IC50 under setting [1] of 18 nM.
